Assay results as given in ChEMBL document CHEMBL1201862, “PubChem BioAssay data set” (2004).
Activity calls are given as the source filed them.

Legend:
[1] = target: T1, Short transient receptor potential channel 4 (Mus musculus, UniProt Q9QUQ5); assay: block of DAMGO-driven TRPC4 calcium entry – cell-based, HEK293 TRPC4/mu-opioid, Fluo-4 calcium, dose response (AID 434942); format: functional;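 also: potency of inhibitors blocking the TRPC4 calcium response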
T1 sequence (Q9QUQ5 whole entry): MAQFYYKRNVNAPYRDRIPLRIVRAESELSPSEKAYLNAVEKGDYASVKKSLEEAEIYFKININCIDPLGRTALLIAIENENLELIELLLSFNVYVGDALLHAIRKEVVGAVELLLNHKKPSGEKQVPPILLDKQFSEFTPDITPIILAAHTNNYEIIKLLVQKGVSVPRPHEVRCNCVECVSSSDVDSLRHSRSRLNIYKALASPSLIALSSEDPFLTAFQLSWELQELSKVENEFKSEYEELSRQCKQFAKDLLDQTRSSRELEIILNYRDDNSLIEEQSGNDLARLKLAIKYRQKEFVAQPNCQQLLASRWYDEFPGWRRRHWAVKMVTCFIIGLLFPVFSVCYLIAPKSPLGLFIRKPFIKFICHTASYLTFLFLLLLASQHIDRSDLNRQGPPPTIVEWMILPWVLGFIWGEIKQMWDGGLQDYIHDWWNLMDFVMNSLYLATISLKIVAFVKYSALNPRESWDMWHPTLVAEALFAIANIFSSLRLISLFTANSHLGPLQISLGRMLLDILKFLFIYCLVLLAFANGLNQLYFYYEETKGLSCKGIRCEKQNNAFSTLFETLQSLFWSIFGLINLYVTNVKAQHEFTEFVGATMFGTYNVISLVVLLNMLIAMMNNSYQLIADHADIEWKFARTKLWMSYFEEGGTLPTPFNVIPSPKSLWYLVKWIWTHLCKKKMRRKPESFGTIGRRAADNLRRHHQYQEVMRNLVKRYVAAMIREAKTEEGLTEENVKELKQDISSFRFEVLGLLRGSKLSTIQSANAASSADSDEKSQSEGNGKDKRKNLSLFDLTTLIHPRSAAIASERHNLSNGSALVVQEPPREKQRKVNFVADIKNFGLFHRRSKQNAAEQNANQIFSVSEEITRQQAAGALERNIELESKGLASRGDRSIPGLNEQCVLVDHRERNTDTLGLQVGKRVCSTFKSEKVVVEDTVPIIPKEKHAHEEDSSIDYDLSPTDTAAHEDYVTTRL

[2] = A Cell Based Secondary Assay To Explore Cytotoxicity of Compounds that Sensitize Mycobacterium Tuberculosis to Beta-Lactam Antibiotics.; format: functional
[3] = target: Eukaryotic translation initiation factor 4E (Mus musculus, UniProt P63073); assay: blockers of eIF4G binding by eIF4E – biochemical, TR-FRET, dose response (AID 855); format: functional;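 also: potency for disrupting eIF4E binding to eIF4GI seen as loss of FRET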
Nonstructural protein 1 = Nonstructural protein 1 (Influenza A virus, UniProt Q194T2); format: functional, Influenza A virus (A/California/07/2009(H1N1))
Streptokinase A = target: T2, Streptokinase A (Streptococcus pyogenes serotype M1, UniProt P10520); assay: viability-normalized secreted streptokinase activity reduction – plasminogen activation absorbance, OD405, dose response (AID 1914); format: functional, Streptococcus pyogenes M1 GAS;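 also: secreted streptokinase activity via plasminogen activation per viability signal from cell pellet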
T2 sequence (P10520 whole entry): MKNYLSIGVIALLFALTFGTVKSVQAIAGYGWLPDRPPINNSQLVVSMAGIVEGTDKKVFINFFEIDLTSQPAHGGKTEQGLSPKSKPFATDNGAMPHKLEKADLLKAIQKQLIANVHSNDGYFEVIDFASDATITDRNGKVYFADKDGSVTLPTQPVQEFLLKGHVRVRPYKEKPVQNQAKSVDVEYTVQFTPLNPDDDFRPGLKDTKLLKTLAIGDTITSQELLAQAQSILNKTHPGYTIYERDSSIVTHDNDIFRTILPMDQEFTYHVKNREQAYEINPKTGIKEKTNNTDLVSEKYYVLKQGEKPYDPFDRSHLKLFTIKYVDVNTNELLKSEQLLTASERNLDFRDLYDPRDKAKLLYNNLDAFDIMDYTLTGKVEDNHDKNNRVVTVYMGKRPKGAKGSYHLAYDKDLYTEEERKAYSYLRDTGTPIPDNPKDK

[4] = non-specific 3'UTR reporter inhibition in Clone20-Shn3RL – cell-based, Renilla luciferase, cherry-picked, counter-screen for Shn3 inhibitor project, dose response (AID 624133); format: functional
[5] = reduction of Shn3 3'UTR-driven luciferase in osteoblasts – cell-based, Clone20 osteoblasts, firefly luciferase, cherry-picked, dose response (AID 624132); format: functional;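 also: firefly luciferase luminescence from reporter carrying the Shn3 3'UTR in osteoblasts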
[6] = loss of viability in HepG2 cells – cell-based, CellTiter-Glo, cherry-picked, cytotoxicity control for Shn3 inhibitor project, dose response (AID 624134); format: functional
Streptococcus = assay: GAS UMAA2166 growth inhibition – luminescence, BacTiterGlo, counter-screen for streptokinase expression inhibitor project, dose response (AID 1915); format: functional, organism-based;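 also: potency for reduction of bacterial viability or growth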
[7] = test system: Streptococcus sp. 'group A'; assay: Streptococcus pyogenes SK(-)GAS viability under kanamycin – luminescence, BacTiterGlo, confirmation, counter-screen for streptokinase expression inhibitor project, dose response (AID 1900); format: functional, organism-based
[8] = Trypanosoma cruzi growth suppression in host cells – NIH3T3 host cells, beta-gal luminescence, confirmation (AID 2044); format: functional, cell-based;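 also: intracellular parasites grown in NIH/3T3 mouse fibroblasts as host cells; luminescent beta-galactosidase reporter signal from transgenic T. cruzi replicating inside host cells; inhibitors lower the luminescence signal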
[9] = NIH3T3 cell viability loss – ATP luminescence, mouse fibroblasts, counter-screen, dose response (AID 2010); format: functional, cell-based;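 also: cells exposed to compound for about 90 hours before reading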

Eukaryotic translation initiation factor 4E, sequence (P63073 whole entry): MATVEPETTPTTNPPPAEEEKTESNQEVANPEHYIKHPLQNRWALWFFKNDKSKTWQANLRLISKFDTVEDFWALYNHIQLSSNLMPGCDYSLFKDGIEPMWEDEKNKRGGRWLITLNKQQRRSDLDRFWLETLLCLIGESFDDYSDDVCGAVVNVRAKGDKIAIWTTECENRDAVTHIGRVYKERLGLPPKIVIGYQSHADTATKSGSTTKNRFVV
Nonstructural protein 1, sequence (Q194T2 whole entry): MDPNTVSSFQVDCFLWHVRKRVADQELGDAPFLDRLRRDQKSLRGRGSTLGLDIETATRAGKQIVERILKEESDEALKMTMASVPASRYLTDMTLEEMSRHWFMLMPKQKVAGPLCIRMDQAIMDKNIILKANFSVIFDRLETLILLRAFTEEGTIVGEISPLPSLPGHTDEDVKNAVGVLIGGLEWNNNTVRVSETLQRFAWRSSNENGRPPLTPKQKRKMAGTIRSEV

## CCN(CC)CCN(C(=O)c1ccccc1OC)c1nc2ccc(F)cc2s1
[1]
  EC50: 2.11 µM (active)

## CC(C)=CCC/C(C)=C/C=N/NC(=O)c1ccc([N+](=O)[O-])cc1
[2]
  CC50: > 40 µM (active)

## Cc1cc(CN2CCCC(C(=O)Nc3ccc(-c4nc5ccccc5[nH]4)cc3)C2)n[nH]1 (stereo not drawn)
[1]
  EC50: 0.0003 µM (active)

## COc1ccccc1NC(=S)NCCSc1ccc(Cl)cc1
[3]
  IC50: > 64 µM (inactive)

## COc1cc(C2C(C(=O)c3ccccc3)=C(O)C(=O)N2c2ccccn2)ccc1O (stereo not drawn)
[3]
  IC50: 50 µM (inactive)

## CN(C)C(CNC(=O)CCc1nc2ccccc2s1)c1ccccc1 (stereo not drawn)
[1]
  EC50: 0.0187 µM (active)

## CSc1ccc(-c2nnn(CC(=O)NCc3ccccc3)n2)cc1
[2]
  CC50: > 40 µM (active)

## COc1ccc(C2=NN(C(=O)c3ccccc3)C(c3ccc(OC)c(OC)c3)C2)c(O)c1 (stereo not drawn)
[1]
  EC50: 9.44 µM (active)

## O=C1NC(=S)N(C2CC2)C(=O)/C1=C/NNC(=O)c1ccccc1O
Nonstructural protein 1
  IC50: 16.2 µM (active)

## CCCn1c(NC(=O)c2ccc(Cl)c(S(=O)(=O)N3CCCC3)c2)nc2ccccc21
Streptokinase A
  EC50: > 150 µM (not active)
[4]
  AC50: 10.9 µM (active)
[5]
  AC50: 8.39 µM (active)
[6]
  AC50: 38.8 µM (active)
[1]
  EC50: 1.06 µM (active)
Streptococcus
  EC50: 11.6 µM (active)
[7]
  EC50: 3.14 µM (active)
[8]
  EC50: 2.63 µM (active)
[9]
  EC50: 6.63 µM (active)
